From patent US20070105836A1, “Prodrugs of muscarinic agonists and methods of treatment of neuropsychiatric disorders” (priority 2005, published 2007)

Test: Conversion of prodrugs to NDMC in vivo (plasma and brain levels of NDMC by LC-MS/MS after oral dosing)
Description: Male, Sprauge-Dawly rats (200-225 grams, Harlan, San Diego, Calif.) implanted with jugular vein cannulae served as experimental subjects. Rats were fasted for approximately 16 hours and then dosed orally with one of several test compounds. All test compounds were administered at a fixed dose of 10 mg/kg (freebase) in a volume of 1 mL/kg. Venous blood samples were collected 0, 30, 60 and 120 min following test compound administration. Samples were placed into heparinized tubes and centrifuged to obtain plasma. Additionally, whole brains were harvested at the 120 min time point in order to determine brain levels of test compounds. Plasma samples, brains and any remaining dosing solutions were stored at −80° C. until analyzed.
The thawed plasma samples were processed by protein precipitation using acetonitrile. Following centrifugation the supernatant was diluted appropriately and transferred to the analysis deep well plate for analysis. […]
Calibration samples and samples were analyzed by LC-MS/MS using positive electrospray ionization. […]
Samples were analyzed using multiple reaction monitoring (MRM). […]
4.0.1 and the area under the curve (AUC0-120) of NDMC was calculated. In vivo conversion to NDMC was calculated from the dose-normalized ratio of AUC0-120 of NDMC following administration of pro-drug and NDMC, respectively.

Clc1ccc2c(c1)N=C(N1CCNCC1)c1ccccc1N2 [NDMC, N-desmethylclozapine]
Plasma AUC(0-120 min) of NDMC (male Sprague-Dawley rats, fasted, oral 10 mg/kg (freebase) of compound administered, plasma 0-120 min): 1.298 µM·h | Mean brain concentration of NDMC at 120 min (SD) (rats, oral 10 mg/kg, whole brain at 120 min, n = 3): 255 (56) nmol/(kg)
